Results on two molecules are retold here after patent US10392398B2, “Inhibitors of Late SV40 Factor (LSF) as cancer chemotherapeutics” (TRUSTEES OF BOSTON UNIVERSITY, priority 2010, dated 2019).

Series [1] concerns QGY-7703-derived tumors. Nature of the series: Subcutaneous xenograft model of HCC in mice. The format is in vivo. The following applies: for growth of hepatocellular carcinoma in vivo: intraperitoneally once every 3 days, about 1.0-2.0 mg/kg. The text has this:
The inventors, in collaboration with other scientists performed in vivo experiments in a subcutaneous xenograft model, where mice with small QGY-7703-derived tumors were given multiple, spaced intraperitoneal injections of FQI1 (Formula IV) over a 2 week period, followed by an additional 2-weeks prior to analysis. […] However, expression of osteopontin, whose gene is activated directly by LSF^8, was abolished by FQI1 treatment, as was expression of Ki-67, indicative of the replicative capacity of the tumors (data not shown). […] In contrast to the dramatic effects on tumor growth, no general toxicity was evident in the inhibitor-treated animals, as assayed by lack of changes in body weight, feeding, grooming, posture, and general behavior, as well as hematoxylin and eosin staining of multiple tissues (data not shown), and levels of liver enzymes and protein in the blood (data not shown).

Series [2] in a line: Kinetic solubility, turbidity based assay. The format is physicochemical. The note with it: PBS buffer, 37 °C, pH 7.2, aqueous buffer, kinetic from dmso stock, 1×PBS pH 7.2, 1% DMSO, read-out: kinetic solubility, concentration at which precipitates first showed. As to the method:
Kinetic solubility was measured via a turbidity based assay method (Kerns, E. et al. Automation in Pharmaceutical Profiling. Journal of Laboratory Automation (2005) 10, 114-123). 198 μL of 1×PBS (137 mM NaCl, 2.7 mM KCl, 10 mM Na2HPO4, 2 mM KH2PO4, pH 7.2) was added to the wells of a 96-well plate. FQI-34 (either dried or air-exposed (9% water as determined by NMR)) was dissolved in DMSO for 30 mM final concentration immediately before testing. The 30 mM stock was further diluted in DMSO appropriately for the desired final concentration to be tested in the solubility assay. 2 μL of the DMSO solutions were added to the 96-well plate such that DMSO was kept to 1%. The plate was sealed and gently shaken, and allowed to incubate at 37° C. for 2 hours, after which the absorbance at 620 nm was taken. The concentration at which the absorbance was greater than or equal to 0.01 absorbance units was taken as the precipitation point.

Series [3] in a line: Pharmacokinetic analysis in rat plasma. It counts as in vivo. The note with it: for Vd: read-out: VDss; for bioavailability: read-out: % Bioavailability F. The protocol:
The purpose of the study was to measure the concentration of FQI-34 in rat plasma samples. The study was performed under non-GLP conditions. All work was performed with appropriate local health regulation and ethical approval. Plasma samples were taken at 0.08, 0.25, 0.5, 1, 2, 4, 8, and 24 hours. Plasma samples were crashed with three volumes of methanol containing an analytical internal standard (propranolol/bucetin/diclofenac). Samples were then centrifuged to remove precipitated protein, and the supernatant was analyzed by LC-MS/MS using a Waters Xevo TQ mass spectrometer coupled with an Acuity HPLC and a CTC PAL chilled autosampler, all controlled by MassLynx software (Waters). The analyte signal was optimized prior to analysis. After separation on a C18 reverse phase HPLC column (Waters Acquity HSS T3 2.1×50 mm 1.8 μM) using an acetonitrile-water gradient system, peaks were analyzed by mass spectrometry (MS) using ESI ionization in MRM mode. All plasma samples were compared to a calibration curve prepared in rat blank plasma.
Male Sprague-Dawley rats were obtained from a commercial source and housed in an AAALAC-approved facility until dosing. For IV dosing, FQI-34 was dissolved in 10% ethanol/16% PEG-400/74% saline at 0.4 mg/mL and in a 1% methylcellulose/0.5% Tween-80 suspension at 10 mg/mL for PO dosing. Three rats per group were dosed by a single IV bolus (10 mL/kg) or PO (10 mL/kg).
Plasma PK-parameters were independently verified and interpreted using PK-solver: An Excel add-In (Zhang, Y. et al. PKSolver: An add-in program for pharmacokinetic and pharmacodynamic data analysis in Microsoft Excel. Comput. Methods Programs Biomed. (2010) 99, 306-314), via a non-compartmental analysis using the linear-trapezoidal method (Fan, J. Pharmacokinetics. Biochemical Pharmacology (2014) 87, 93-120).

Where [4] appears, read: male, Sprague-Dawley, rat, plasma, iv, 4 mg/kg, rat plasma, IV 4 mg/kg, AVERAGE.
The mark [5] stands for this setting: male, Sprague-Dawley, rat, plasma, iv, 4 mg/kg, rat plasma, IV 4 mg/kg, individual rats A, B, C.
[6] abbreviates: rat plasma, IV 4 mg/kg, individual rats A, B, C, 4 mg/kg.
[7] abbreviates: rat plasma, PO 100 mg/kg, individual rats A, B, C, 100 mg/kg.
Setting [8] is: rat, IV 4 mg/kg, individual rats A, B, C, 4 mg/kg.

Converted amounts (≈) assume the structure as drawn. “And” between values parts separate entries of the source, which are not always exact repeats. Identical values can stand only once. Like-named read-outs stand apart in the source and are kept apart here.

For `CCOc1ccccc1C1CC(=O)Nc2cc3c(cc21)OCO3` (racemic) [FQI1, 8-(2-ethoxyphenyl)-7,8-dihydro-[1,3]dioxolo[4,5-g]quinolin-6(5H)-one], the “suppression of growth of HCC tumor size” value in series [1] (about 1.0-2.0 mg/kg once every 3 days, versus untreated mice, data not shown) was 65-80%. Further, the “general toxicity in inhibitor-treated animals” value in series [1] (body weight, feeding, grooming, posture, behavior, H&E of tissues) is “not evident”. The “expression of Ki-67 in endpoint tumors” value in series [1] (immunofluorescence) was “abolished”. Moreover, the “expression of osteopontin in endpoint tumors” value in series [1] (immunofluorescence) is given as “abolished”. Also, in series [1] (in words), the “tumor growth in mouse xenograft” value was “remarkable decrease in tumor growth”. The “growth of hepatocellular carcinoma in vivo” value in series [1] (in words, listed as formula (IV)) is reported as “prevented or delayed the growth of hepatocellular carcinoma”; in series [1] (in words, listed as formula IV), “effective at abrogating the growth of hepatocellular carcinoma in vivo”. Also, the “reduction of HCC tumor volume” value in series [1] (mouse model, data not shown) is reported as “about 80%”. Also, the “decrease in endpoint tumor volumes” value in series [1] (multiple intraperitoneal injections over 2 weeks, analysis 2 weeks later, data not shown) was about 9 fold.

For the molecule `CCOc1cc(N(C)C)ccc1C1CC(=O)Nc2cc3c(cc21)OCO3` (centres unmarked) [FQI-34, 8-(4-(dimethylamino)-2-ethoxyphenyl)-7,8-dihydro-[1,3]dioxolo[4,5-g]quinolin-6(5H)-one], the solubility kinetic at 2 h is 100 µM (≈ 35.4 µg/mL) in series [2] (air-exposed (9% water)) and 150 µM (≈ 53.2 µg/mL) in series [2] (dry). Besides, the clearance in series [3] (male, Sprague-Dawley, rat, plasma, iv, 4 mg/kg, IV 4 mg/kg, AVERAGE) worked out at 73 mL/min/kg; in series [3] (male, Sprague-Dawley, rat, plasma, iv, 4 mg/kg, IV 4 mg/kg, individual rats A, B, C) it was 65 mL/min/kg. The area under the curve AUC(0-inf) in series [3] (setting [4]) was found to be 935 ng·h/mL; in series [3] (setting [5]), 1020 ng·h/mL; in series [3] (male, Sprague-Dawley, rat, plasma, po, 100 mg/kg, rat plasma, PO 100 mg/kg, AVERAGE), 4960 ng·h/mL; in series [3] (male, Sprague-Dawley, rat, plasma, po, 100 mg/kg, rat plasma, PO 100 mg/kg, individual rats A, B, C), 4900 ng·h/mL. Besides, the half-life was 48.6 min in series [3] (setting [4]) and 43.8 min in series [3] (setting [5]). In addition, the C0 in series [3] (male, Sprague-Dawley, rat, plasma, iv, 4 mg/kg, rat plasma, IV 4 mg/kg, AVERAGE, read-out: C0) is 423 ng/mL; in series [3] (male, Sprague-Dawley, rat, plasma, iv, 4 mg/kg, rat plasma, IV 4 mg/kg, individual rats A, B, C, read-out: C0), 434 ng/mL; in series [3] (setting [6]), 446 ng/mL and 390 ng/mL. Besides, the maximum concentration (Cmax) was 552 ng/mL in series [3] (male, Sprague-Dawley, rat, plasma, iv, 4 mg/kg, rat plasma, IV 4 mg/kg, AVERAGE, read-out: Cmax); 545 ng/mL in series [3] (male, Sprague-Dawley, rat, plasma, iv, 4 mg/kg, rat plasma, IV 4 mg/kg, individual rats A, B, C, read-out: Cmax); 526 ng/mL in series [3] (male, Sprague-Dawley, rat, plasma, po, 100 mg/kg, rat plasma, PO 100 mg/kg, AVERAGE, read-out: Cmax); 500 ng/mL in series [3] (male, Sprague-Dawley, rat, plasma, po, 100 mg/kg, rat plasma, PO 100 mg/kg, individual rats A, B, C, read-out: Cmax); 548 ng/mL and 564 ng/mL in series [3] (setting [6]); 501 ng/mL and 577 ng/mL in series [3] (setting [7]). Further, the time to peak (Tmax) in series [3] (male, Sprague-Dawley, rat, plasma, iv, 4 mg/kg, rat plasma, IV 4 mg/kg, AVERAGE, read-out: Tmax) was 25.2 min; in series [3] (male, Sprague-Dawley, rat, plasma, iv, 4 mg/kg, rat plasma, IV 4 mg/kg, individual rats A, B, C, read-out: Tmax), 30 min; in series [3] (male, Sprague-Dawley, rat, plasma, po, 100 mg/kg, rat plasma, PO 100 mg/kg, AVERAGE, read-out: Tmax), 162 min; in series [3] (male, Sprague-Dawley, rat, plasma, po, 100 mg/kg, rat plasma, PO 100 mg/kg, individual rats A, B, C, read-out: Tmax), 240 min; in series [3] (setting [6]), 15 min; in series [3] (setting [7]), 120 min. Besides, the Vd is 5.1 L/kg in series [3] (male, Sprague-Dawley, rat, plasma, iv, 4 mg/kg, rat, IV 4 mg/kg, AVERAGE) and 4.6 L/kg in series [3] (male, Sprague-Dawley, rat, plasma, iv, 4 mg/kg, rat, IV 4 mg/kg, individual rats A, B, C). In addition, the bioavailability came to 21% in series [3] (male, Sprague-Dawley, rat, plasma, po, 100 mg/kg, rat, PO 100 mg/kg, AVERAGE) and 21% in series [3] (male, Sprague-Dawley, rat, plasma, po, 100 mg/kg, rat, PO 100 mg/kg, individual rats A, B, C). Besides, the “AUC(0-∞)” value in series [3] (setting [6]) is 759 ng·h/mL and 1028 ng·h/mL; in series [3] (setting [7]) it was 4026 ng·h/mL and 5936 ng·h/mL. In addition, the “T1/2” value in series [3] (setting [6]) was 43.2 min and 59.4 min. Also, the “CL” value in series [3] (setting [8]) was found to be 88 mL/min/kg. Besides, the “VDss” value in series [3] (setting [8]) was 5.4 L/kg and 5.3 L/kg. Moreover, the “% Bioavailability F” value in series [3] (rat, PO 100 mg/kg, individual rats A, B, C, 100 mg/kg) was 17% and 25%.
